From US20040248195A1, “Uses of a thyx polypeptide or a nucleic acid encoding such a polypeptide, in particular for screening anti-bacterial or anti-viral compounds” (priority 2001, published 2004)

Columns and labels:
[1] = molecular target: T1, ThyX protein of H. pylori (Helicobacter pylori, UniProt O26061); assay: Tritium release from [5-3H]dUMP by purified ThyX (thymidylate synthase activity); assay type: biochemical; settings: for inhibition of ThyX activity: result in words
T1 construct: made in house
Description: In dTMP formation, the loss of tritium from […] in the solvent is a compulsory intermediary, allowing to quantify the thymidylate-synthetase activity after removal of radioactive nucleotides from the reaction mixtures (ROBERTS, 1966). In order to tackle the biochemical mechanism, wherein ThyX could circumvent the requirement for the ThyA in the de novo synthesis of thymydilate, the purified ThyX protein was used to the same extent.
N^5,N^10—CH2H4folate was non-enzymatically formed, through incubation of 2 mM of tetrahydrofolic acid (Sigma®) with 100 mM of β-mercaptoethanol and 20 mM of formol for 30 minutes in the dark and at room temperature. […] The control reactions were achieved under analogous conditions, without tetrahydrofolic acid. […], a specific activity at 16,2 Ci/mmol (Amersham) and stopped after 60 minutes at 37° C. by two extractions with 250 μl of active carbon [10% (weight/volume) of Norit A] in 2% trichloroacetic acid so as to remove the nucleotides from the reaction mixtures. The remanent radioactivity in the supernatant was determined according to MYLLYKALLIO (2000).

[2] = tested on: transformants containing thyX in the E.coli X2913(ΔthyA) strain; settings: only high trimethoprim concentrations inhibit

T1 sequence (O26061 whole entry): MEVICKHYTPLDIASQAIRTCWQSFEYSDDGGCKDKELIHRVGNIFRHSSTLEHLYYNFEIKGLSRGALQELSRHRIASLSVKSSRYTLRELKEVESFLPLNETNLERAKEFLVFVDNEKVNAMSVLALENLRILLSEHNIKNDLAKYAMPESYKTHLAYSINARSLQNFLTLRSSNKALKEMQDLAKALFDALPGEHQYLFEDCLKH

Nc1nc2c(c(=O)[nH]1)N1CN(c3ccc(C(=O)N[C@@H](CCC(=O)O)C(=O)O)cc3)CC1CN2 (stereo partly shown) [CH2H4folate]
concentration sufficient for saturating the release activity of tritium ([1]; complete reaction conditions, 60 minutes incubation): 100 µM

O=c1ccn([C@@H]2O[C@H](COP(=O)(O)O)[C@@H](O)[C@H]2O)c(=O)[nH]1 [UMP]
nmol of released ^3H/mg of protein (60 minute incubation) ([1]; complete test plus 500 μM of the added nucleotide, 9 μM 3H-dUMP, 60 minute incubation): 64.4 nmol of released ^3H/mg of protein
released ^3H as % of the complete test ([1]; complete test plus 500 μM of the added nucleotide, complete = 100%, 60 minute incubation): 102.2%
use as substrate by the ThyX activity (competition experiments) ([1]; simple competition experiments): does not use UMP as a substrate

Cc1cn([C@H]2C[C@H](O)[C@@H](COP(=O)(O)O)O2)c(=O)[nH]c1=O [dTMP, thymidine 5′-monophosphate]
inhibition of ThyX activity [1]: inhibited

O=c1[nH]c(=O)n([C@H]2C[C@H](O)[C@@H](COP(=O)(O)O)O2)cc1F [fluoro-dUMP]
inhibition of ThyX activity [1]: inhibitor

COc1cc(Cc2cnc(N)nc2N)cc(OC)c1OC [trimethoprim]
inhibition of growth of thyX transformants [2]: inhibited
